In patent publication US20240382482A1, “PLASMA KALLIKREIN INHIBITORS” (TAKEDA PHARMACEUTICAL COMPANY LIMITED, priority 2021, published 2024) one finds EC50 data, which are given here for 21 molecules.

Molecules are shown by their SMILES. Where a name gives a salt, the structure may show the parent alone.

In this assay the target is human activated kallikrein enzyme (Homo sapiens, UniProt P03952). The assay can be described thus: Inhibition of human activated kallikrein enzyme, fluorogenic peptide substrate assay (500 pM enzyme format). Format: biochemical. The following applies: 500 pM activated kallikrein, 300 μM PFR-AMC substrate, 30 min preincubation, 10 min reaction, room temperature; read-out: Primary Dose Response Assay: Average EC50. As for the experimental part: Compounds were evaluated for inhibition of the human activated kallikrein enzyme in two formats of an assay employing a fluorogenic peptide substrate. In one assay format, the concentrations of reagents were as follows: 20 mM Tris pH 7.5, 1 mM EDTA, 150 mM sodium chloride, 0.1% PEG-400, 0.1% Triton X-100, 500 pM activated kallikrein enzyme, 300 μM Pro-Phe-Arg-7-amido-4-methylcoumarin (PFR-AMC) substrate. Prior to reaction initiation with substrate, enzyme and inhibitors were preincubated for 30 min at room temperature. After initiation with substrate, reactions were incubated for 10 min at room temperature and fluorescence emission at 460 nm from 380 nm excitation measured with a microplate reader. In another assay format, the concentrations of reagents were as follows: 20 mM Tris pH 7.5, 1 mM EDTA, 150 mM sodium chloride, 0.1% PEG-400, 0.1% Triton X-100, 5 pM activated kallikrein enzyme, 300 uM PFR-AMC substrate. Prior to reaction initiation with substrate, enzyme and inhibitors were preincubated for 30 min at room temperature. After initiation with substrate, reactions were incubated for 18 hr at room temperature and fluorescence emission at 460 nm from 380 nm excitation measured with a microplate reader.
Table 1 provides the results of the assay in the format with 500 pM activated kallikrein assay. For the compounds listed in Table 1, the EC50 values are reported according to the following ranges: A≤5.0 nM; 5.0 nM<B≤50 nM; 50 nM<C≤500 nM; 500 nM<D≤9000 nM; 9000 nM<E.

human activated kallikrein enzyme, sequence (P03952 391-638 limits assumed): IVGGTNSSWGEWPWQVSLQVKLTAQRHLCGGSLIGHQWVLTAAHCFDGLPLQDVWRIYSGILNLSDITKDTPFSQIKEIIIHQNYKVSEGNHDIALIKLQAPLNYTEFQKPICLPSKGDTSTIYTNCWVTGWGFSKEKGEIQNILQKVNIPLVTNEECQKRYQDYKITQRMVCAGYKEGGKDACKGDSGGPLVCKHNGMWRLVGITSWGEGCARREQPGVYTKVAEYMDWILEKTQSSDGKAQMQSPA
human activated kallikrein enzyme, sequence (P03952 20-390 partner limits assumed): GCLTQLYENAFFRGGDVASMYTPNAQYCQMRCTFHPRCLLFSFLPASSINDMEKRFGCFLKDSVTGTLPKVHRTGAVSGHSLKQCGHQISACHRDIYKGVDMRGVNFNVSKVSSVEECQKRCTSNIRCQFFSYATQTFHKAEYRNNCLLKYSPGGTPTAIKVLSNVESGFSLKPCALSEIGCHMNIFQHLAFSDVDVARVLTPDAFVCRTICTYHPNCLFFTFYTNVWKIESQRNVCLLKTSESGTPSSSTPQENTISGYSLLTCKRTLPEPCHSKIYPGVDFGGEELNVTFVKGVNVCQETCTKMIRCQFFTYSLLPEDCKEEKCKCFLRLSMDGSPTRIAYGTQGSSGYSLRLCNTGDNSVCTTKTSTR

On to `Cc1cc(C(=N)NO)cc(C)c1CNc1cc(OCc2cn3cc(C4CC4)ccc3n2)ncn1` [Example 71, 4-(((6-((6-cyclopropylimidazo[1,2-a]pyridin-2-yl)methoxy)pyrimidin-4-yl)amino)methyl)-N-hydroxy-3,5-dimethylbenzimidamide], for which the EC50 was 5 to 50 nM.

Turning to `O=C(Nc1cc(NCc2cn3cc(C4CC4)ccc3n2)ncn1)C(=O)c1ncn2ccc(Cl)cc12` [Example 54, 2-(7-chloroimidazo[1,5-a]pyridin-1-yl)-N-(6-(((6-cyclopropylimidazo[1,2-a]pyridin-2-yl)methy)amino)pyrimidin-4-yl)-2-oxoacetamide], the EC50 was no more than 5 nM.

As for `CC(C(=O)Nc1cc(C(F)(F)c2cn3cc(C4CC4)ccc3n2)ncn1)c1ncn2ccc(Cl)cc12` (stereo not drawn) [Example 61, 2-(7-chloroimidazo[1,5-a]pyridin-1-yl)-N-(6-((6-cyclopropylimidazo[1,2-a]pyridin-2-yl)difluoromethyl)pyrimidin-4-yl)propanamide], the EC50 was 500 to 9000 nM.

As for `CCOC(=O)NC(=N)c1cc(C)c(CNc2cc(OCc3cn4cc(C5CC5)ccc4n3)nc(C(=O)O)n2)c(C)c1` [Example 88, 4-((6-cyclopropylimidazo[1,2-a]pyridin-2-yl)methoxy)-6-(4-(N-(ethoxycarbonyl)carbamimidoyl)-2,6-dimethylbenzylamino)pyrimidine-2-carboxylic acid], the EC50 is no more than 5 nM.

In the case of `Cc1cc(N)nc(C)c1CNc1cc(C(O)c2cn3cc(C4CC4)ccc3n2)ncn1` (stereo not drawn) [Example 64, (6-(((6-amino-2,4-dimethylpyridin-3-yl)methyl)amino)pyrimidin-4-yl)(6-cyclopropylimidazo[1,2-a]pyridin-2-yl)methanol bisformic acid salt], the EC50 lay within 5 to 50 nM.

Consider `O=C(Cc1ncn2ccc(Cl)cc12)Nc1cc(NCc2cn3cc(C4CC4)ccc3n2)nc(C(=O)O)n1` [Example 21, 4-(2-(7-chloroimidazo[1,5-a]pyridin-1-yl)acetamido)-6-(((6-cyclopropylimidazo[1,2-a]pyridin-2-yl)methyl)amino)pyrimidine-2-carboxylic acid], for which the EC50 was no more than 5 nM.

Regarding `O=C(Cc1ncn2ccc(Cl)cc12)Nc1cc(NCc2cn3cc(C4CC4)ccc3n2)nc(C(F)(F)F)n1` [Example 101, 2-(7-chloroimidazo[1,5-a]pyridin-1-yl)-N-(6-(((6-cyclopropylimidazo[1,2-a]pyridin-2-yl)methyl)amino)-2-(trifluoromethyl)pyrimidin-4-yl)acetamide], the EC50 is 5 to 50 nM.

In the case of `O=C(Cc1ncn2ccc(Cl)cc12)Nc1cnnc(OCc2cn3cc(C4CC4)ccc3n2)c1` [Example 34, 2-(7-chloroimidazo[1,5-a]pyridin-1-yl)-N-(6-((6-cyclopropylimidazo[1,2-a]pyridin-2-yl)methoxy)pyridazin-4-yl)acetamide], the EC50 is 50 to 500 nM.

Turning to `CCOC(=O)c1nc(NCc2c(C)cc(C(=N)NO)cc2C)cc(OCc2cn3cc(C4CC4)ccc3n2)n1` [Example 81, ethyl 4-((6-cyclopropylimidazo[1,2-a]pyridin-2-yl)methoxy)-6-((4-(N-hydroxycarbamimidoyl)-2,6-dimethylbenzyl)amino)pyrimidine-2-carboxylate], the EC50 fell in the range of 50 to 500 nM.

Turning to `Cc1cc(C(=N)N)cc(C)c1CNc1cc(OCc2cn3cc(C4CC4)ccc3n2)nc(CCC(=O)O)n1` [Example 74, 3-(4-((4-carbamimidoyl-2,6-dimethylbenzyl)amino)-6-((6-cyclopropylimidazo[1,2-a]pyridin-2-yl)methoxy)pyrimidin-2-yl)propanoic acid formic acid salt], the EC50 is no more than 5 nM.

For the molecule `CCOC(=O)CCc1nc(NCc2c(C)cc(C(=N)N)cc2C)cc(OCc2cn3cc(C4CC4)ccc3n2)n1` [Example 70, ethyl 3-(4-((4-carbamimidoyl-2,6-dimethylbenzyl)amino)-6-((6-cyclopropylimidazo[1,2-a]pyridin-2-yl)methoxy)pyrimidin-2-yl)propanoate formic acid salt], the EC50 was no more than 5 nM.

On to `Cc1cc(C(=N)N)cc(C)c1CNc1cc(OCc2cn3cc(C4CC4)ccc3n2)ncn1` [Example 72, 4-(((6-((6-cyclopropylimidazo[1,2-a]pyridin-2-yl)methoxy)pyrimidin-4-yl)amino)methyl)-3,5-dimethylbenzimidamide formic acid salt], for which the EC50 is no more than 5 nM.

For the molecule `O=C(Cc1ncn2ccc(Cl)cc12)Nc1cc(NCc2cn3cc(C4CC4)ccc3n2)ccn1` [Example 25, 2-(7-chloroimidazo[1,5-a]pyridin-1-yl)-N-(4-(((6-cyclopropylimidazo[1,2-a]pyridin-2-yl)methyl)amino)pyridin-2-yl)acetamide], the EC50 was no more than 5 nM.

As for `COCCOc1nc(NCc2cn3cc(C4CC4)ccc3n2)cc(NC(=O)Cc2ncn3ccc(Cl)cc23)n1` [Example 100, 2-(7-chloroimidazo[1,5-a]pyridin-1-yl)-N-(6-(((6-cyclopropylimidazo[1,2-a]pyridin-2-yl)methyl)amino)-2-(2-methoxyethoxy)pyrimidin-4-yl)acetamide], the EC50 is 5 to 50 nM.

With `CCOC(=O)CCc1nc(NCc2c(C)cc(C(=N)NC(=O)OCC)cc2C)cc(OCc2cn3cc(C4CC4)ccc3n2)n1` [Example 77, ethyl 3-(4-((6-cyclopropylimidazo[1,2-a]pyridin-2-yl)methoxy)-6-((4-(N-(ethoxycarbonyl)carbamimidoyl)-2,6-dimethylbenzyl)amino)pyrimidin-2-yl)propanoate], the EC50 fell in the range of 5 to 50 nM.

With `CC(=O)c1nc(NCc2cn3cc(C4CC4)ccc3n2)cc(NC(=O)Cc2ncn3ccc(Cl)cc23)n1` [Example 102, N-(2-acetyl-6-(((6-cyclopropylimidazo[1,2-a]pyridin-2-yl)methyl)amino)pyrimidin-4-yl)-2-(7-chloroimidazo[1,5-a]pyridin-1-yl)acetamide], the EC50 was no more than 5 nM.

Regarding `O=C(COc1cc(Cl)ccc1-n1cnnn1)Nc1cc(NCc2cn3cc(C4CC4)ccc3n2)ccn1` [Example 116, 2-(5-chloro-2-(1H-tetrazol-1-yl)phenoxy)-N-(4-(((6-cyclopropylimidazo[1,2-a]pyridin-2-yl)methyl)amino)pyridin-2-yl)acetamide], the EC50 was 5 to 50 nM.

As for `O=C(Cc1cnc2[nH]cc(Cl)c2c1)Nc1cc(NCc2cn3cc(C4CC4)ccc3n2)ccn1` [Example 130, 2-(3-chloro-1H-pyrrolo[2,3-b]pyridin-5-yl)-N-(4-(((6-cyclopropylimidazo[1,2-a]pyridin-2-yl)methyl)amino)pyridin-2-yl)acetamide], the EC50 was no more than 5 nM.

For `Cc1cc(CN)cc(C)c1CNc1cc(OCc2cn3cc(C4CC4)ccc3n2)ncn1` [Example 108, N-(4-(aminomethyl)-2,6-dimethylbenzyl)-6-((6-cyclopropylimidazo[1,2-a]pyridin-2-yl)methoxy)pyrimidin-4-amine], the EC50 is no more than 5 nM.

`CCCCCCOC(=O)NC(=N)c1cc(C)c(CNc2cc(OCc3cn4cc(C5CC5)ccc4n3)nc(C(=O)OCC)n2)c(C)c1` [Example 87, ethyl 4-((6-cyclopropylimidazo[1,2-a]pyridin-2-yl)methoxy)-6-(4-(N-(hexyloxycarbonyl)carbamimidoyl)-2,6-dimethylbenzylamino)pyrimidine-2-carboxylate]: the EC50 was in the range of 50 to 500 nM.

Consider `COc1ccc(-n2cnnn2)c(CC(=O)Nc2cc(NCc3cn4cc(C5CC5)ccc4n3)ncn2)c1F` [Example 37], for which the EC50 was no more than 5 nM.

What is called EC50 is the concentration that produces a half-maximal response.
